The record followed here is PMC5612753, “New lipases by mining of Pleurotus ostreatus genome” (PLoS ONE, 2017).

In assay [1] the test system is T1, PleoLip369.
T1 construct: signal peptide removed, codon-optimised synthetic gene behind alpha-factor signal, secreted from Pichia pastoris BG-10, purified by CM Sepharose; catalytic Ser266, Asp394, His512, pentapeptide GESAG
The assay is described as follows: spectrophotometric p-nitrophenol release, […] nm; non-linear regression. Format: biochemical, Pleurotus ostreatus. The settings on record: pH 8; substrate 0.001-1 mM.

Assay [2] has as its system T2, PleoLip241.
T2 construct: signal peptide removed, codon-optimised synthetic gene behind alpha-factor signal, secreted from Pichia pastoris BG-10, purified by CM Sepharose; catalytic Ser273, Asp403, His520, pentapeptide GQSAG
The assay is described as above. Type of assay: biochemical, Pleurotus ostreatus. The settings on record: pH 8; substrate 0.001-1 mM.

As for `CCCCCCCC(=O)Oc1ccc([N+](=O)[O-])cc1` [pNP-C8, p-nitrophenyl octanoate], the Km (commonly the concentration of substrate that gives half-maximal velocity) in assay [1] is 510 ± 60 µM.

In the case of `CCCCCCCCCC(=O)Oc1ccc([N+](=O)[O-])cc1` [pNP-C10, p-nitrophenyl decanoate], the values for the Km in assay [1] and in assay [2] were 130 ± 20 µM and 30 ± 5 µM, respectively.

Consider `CCCCCCCCCCCC(=O)Oc1ccc([N+](=O)[O-])cc1` [pNP-C12, p-nitrophenyl dodecanoate], for which the Km worked out at 652 ± 75 µM in assay [1] and 150 ± 6 µM in assay [2].

Turning to `CCCCCCCCCCCCCC(=O)Oc1ccc([N+](=O)[O-])cc1` [pNP-C14, p-nitrophenyl myristate], the Km in assay [2] was 85 ± 4 µM.

On to `CCCCCCCCCCCCCCCC(=O)Oc1ccc([N+](=O)[O-])cc1` [pNP-C16, p-nitrophenyl palmitate], for which the Km in assay [2] is 350 ± 38 µM.
